According to the SangsterLogP compilation:

Assay: method code G-GLC, from DOI: 10.1021/je0101909

SMILES | logP
Clc1cc(-c2cc(Cl)c(Cl)c(Cl)c2Cl)cc(Cl)c1Cl | 7.15
Clc1ccc(-c2cc(Cl)c(Cl)c(Cl)c2)cc1Cl | 6.56
Clc1cc(Cl)c(-c2cc(Cl)c(Cl)c(Cl)c2)cc1Cl | 6.82
Clc1ccc(-c2cc(Cl)c(Cl)c(Cl)c2)cc1 | 6.53
Clc1cc(-c2ccc(Cl)c(Cl)c2Cl)cc(Cl)c1Cl | 6.73
Clc1ccc(-c2cc(Cl)c(Cl)cc2Cl)cc1Cl | 6.49
Clc1ccc(-c2cc(Cl)c(Cl)c(Cl)c2)c(Cl)c1 | 6.5
Clc1ccc(-c2cc(Cl)c(Cl)c(Cl)c2Cl)cc1 | 6.47
Clc1ccc(-c2cc(Cl)c(Cl)c(Cl)c2Cl)cc1Cl | 6.75
Clc1ccc(-c2ccc(Cl)c(Cl)c2Cl)cc1Cl | 6.61
Clc1cc(-c2cc(Cl)c(Cl)c(Cl)c2)cc(Cl)c1Cl | 7.01
